Experimental data as given in US20240158392A1 (Janssen Biotech, Inc., priority 2021, published 2024).

Tests used:
SIK2 [1] = target: T1, SIK2 (Homo sapiens, UniProt Q9H0K1); assay: SIK2 Enzymatic Assay High Version 2 (High ATP); format: biochemical
Method in brief: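 At room temperature, enzyme (6 nM, 2× final) was preincubated with compound for 30 min, then 6 mM ATP and 400 μM HDAC5tide (both 2× final) were added for 2 h. ADP formed was measured by ADP-Glo Max (2 h reagent, 1 h detection) using luminescence.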

SIK2 [2] = target: T1, SIK2; assay: SIK2 Enzymatic Assay Version 1 (ADP Glo); format: biochemical
Method in brief: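 Room-temperature ADP-Glo luminescence assay; SIK2 added at 0.6 nM (2× final) and preincubated with compound for 30 min. Reaction stopped with ADP-Glo Reagent for 40 min, then detection reagent for at least 30 min; no-peptide (ATP-only) wells served as negative control.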

[3] = enzyme 0.6 nM, 160 μM ATP and 140 μM HDAC5tide (each 2× final concentration), 30 minutes pre-incubation, 4 hours, ADPGlo luminescence, read-out: SIK2 ADP Glo IC50 (μM) (Test Example 1)

T1 sequence (Q9H0K1 whole entry, species assumed): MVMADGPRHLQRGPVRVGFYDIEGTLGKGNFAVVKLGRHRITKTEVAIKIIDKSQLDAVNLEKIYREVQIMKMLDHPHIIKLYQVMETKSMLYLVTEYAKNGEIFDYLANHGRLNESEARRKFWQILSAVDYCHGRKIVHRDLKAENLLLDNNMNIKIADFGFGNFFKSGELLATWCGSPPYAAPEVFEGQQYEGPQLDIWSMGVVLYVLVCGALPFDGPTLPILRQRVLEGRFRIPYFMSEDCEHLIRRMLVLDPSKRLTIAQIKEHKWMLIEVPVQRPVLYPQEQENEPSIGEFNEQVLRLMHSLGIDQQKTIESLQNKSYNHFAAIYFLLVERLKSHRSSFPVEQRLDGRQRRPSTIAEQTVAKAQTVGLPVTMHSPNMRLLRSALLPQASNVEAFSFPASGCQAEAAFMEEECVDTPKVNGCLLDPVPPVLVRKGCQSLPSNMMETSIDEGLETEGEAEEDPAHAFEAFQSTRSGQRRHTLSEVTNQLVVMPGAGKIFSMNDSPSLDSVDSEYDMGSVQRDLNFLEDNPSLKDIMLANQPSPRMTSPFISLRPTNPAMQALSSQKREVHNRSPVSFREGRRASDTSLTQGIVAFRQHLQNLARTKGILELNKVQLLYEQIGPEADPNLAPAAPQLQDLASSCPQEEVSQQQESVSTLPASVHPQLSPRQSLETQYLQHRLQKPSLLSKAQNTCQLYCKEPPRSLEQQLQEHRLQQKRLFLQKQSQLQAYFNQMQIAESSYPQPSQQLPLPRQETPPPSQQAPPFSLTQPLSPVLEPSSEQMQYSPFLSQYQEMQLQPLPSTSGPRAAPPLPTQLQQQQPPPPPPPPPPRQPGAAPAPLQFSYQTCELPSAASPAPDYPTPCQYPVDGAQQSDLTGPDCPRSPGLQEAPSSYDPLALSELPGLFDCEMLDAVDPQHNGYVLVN

| IC50 (SIK2 [1]) | IC50 (SIK2 [2]; [3]) | IC50 (SIK2 [2]) | Structure (SMILES) |
| --- | --- | --- | --- |
| 8.63 nM | 0.00095 µM | – | N#Cc1cc(-c2ccn3nc(NC(=O)C4CC4)cc3c2)c(OC[C@H]2CC[C@H](N)CC2)cn1 [Example 586, N-(5-(5-(((1r,4r)-4-aminocyclohexyl)methoxy)-2-cyanopyridin-4-yl)pyrazolo[1,5-a]pyridin-2-yl)cyclopropanecarboxamide] |
| 87 nM | 0.00381 µM | – | N#Cc1cc(-c2ccn3nc(NC(=O)C4CC4)cc3c2)c(OC2CC3(CNC3)C2)cn1 [Example 587, N-[5-[5-(6-azaspiro[3.3]heptan-2-yloxy)-2-cyano-4-pyridyl]pyrazolo[1,5-a]pyridin-2-yl]cyclopropanecarboxamide] |
| 59.6 nM | 0.00342 µM | – | N#Cc1cc(-c2ccn3nc(NC(=O)C4CC4)cc3c2)c(OC[C@@H]2CCN(CC(F)(F)F)C2)cn1 [Example 588, N-[5-[2-cyano-5-[[(3R)-1-(2,2,2-trifluoroethyl)pyrrolidin-3-yl]methoxy]-4-pyridyl]pyrazolo[1,5-a]pyridin-2-yl]cyclopropanecarboxamide] |
| 75.9 nM | 0.00625 µM | – | N#Cc1cc(-c2ccn3nc(NC(=O)C4CC4)cc3c2)c(OC[C@@H]2CCN(C3CC3)C2)cn1 [Example 589, N-[5-[2-cyano-5-[[(3R)-1-cyclopropylpyrrolidin-3-yl]methoxy]-4-pyridyl]pyrazolo[1,5-a]pyridin-2-yl]cyclopropanecarboxamide] |
| 19.5 nM | 0.00124 µM | – | N#Cc1cc(-c2ccn3nc(NC(=O)C4CC4)cc3c2)c(OC2CN(CC(F)(F)F)C2)cn1 [Example 590, N-[5-[2-cyano-5-[1-(2,2,2-trifluoroethyl)azetidin-3-yl]oxy-4-pyridyl]pyrazolo[1,5-a]pyridin-2-yl]cyclopropanecarboxamide] |
| 7.9 nM | 0.000647 µM | – | N#Cc1cc(-c2ccn3nc(NC(=O)C4CC4)cc3c2)c(OC[C@H]2C[C@H](N)C2)cn1 [Example 591, N-(5-(5-(((1r,3r)-3-aminocyclobutyl)methoxy)-2-cyanopyridin-4-yl)pyrazolo[1,5-a]pyridin-2-yl)cyclopropanecarboxamide] |
| 120 nM | 0.00486 µM | – | N#Cc1cc(-c2ccn3nc(NC(=O)C4CC4)cc3c2)c(OC[C@H]2CNCCO2)cn1 [Example 592, N-[5-[2-cyano-5-[[(2R)-morpholin-2-yl]methoxy]-4-pyridyl]pyrazolo[1,5-a]pyridin-2-yl]cyclopropanecarboxamide] |
| 30.7 nM | 0.00242 µM | – | N#Cc1cc(-c2ccn3nc(NC(=O)C4CC4)cc3c2)c(OC[C@H]2CCCNC2)cn1 [Example 593, N-[5-[2-cyano-5-[[(3S)-3-piperidyl]methoxy]-4-pyridyl]pyrazolo[1,5-a]pyridin-2-yl]cyclopropanecarboxamide] |
| 9.09 nM | 0.000627 µM | – | N#Cc1cc(-c2ccn3nc(NC(=O)C4CC4)cc3c2)c(O[C@@H]2CCNC2)cn1 [Example 594, N-[5-[2-cyano-5-[(3R)-pyrrolidin-3-yl]oxy-4-pyridyl]pyrazolo[1,5-a]pyridin-2-yl]cyclopropanecarboxamide] |
| 14.6 nM | 0.00125 µM | – | N#CCN[C@H]1C[C@@H](COc2cnc(C#N)cc2-c2ccn3nc(NC(=O)C4CC4)cc3c2)C1 [Example 596, N-[5-[2-cyano-5-[[3-(cyanomethylamino)cyclobutyl]methoxy]-4-pyridyl]pyrazolo[1,5-a]pyridin-2-yl]cyclopropanecarboxamide] |
| 29.9 nM | 0.00192 µM | – | N#Cc1cc(-c2ccn3nc(NC(=O)C4CC4)cc3c2)c(OC[C@H]2C[C@@H](NC3CC3)C2)cn1 [Example 597, N-[5-[2-cyano-5-[[3-(cyclopropylamino)cyclobutyl]methoxy]-4-pyridyl]pyrazolo[1,5-a]pyridin-2-yl]cyclopropanecarboxamide] |
| 53.5 nM | 0.0041 µM | – | CCOC(=O)CN[C@H]1C[C@@H](COc2cnc(C#N)cc2-c2ccn3nc(NC(=O)C4CC4)cc3c2)C1 [Example 598, ethyl 2-[[3-[[6-cyano-4-[2-(cyclopropanecarbonylamino)pyrazolo[1,5-a]pyridin-5-yl]-3-pyridyl]oxymethyl]cyclobutyl]amino]acetate] |
| 207 nM | 0.0142 µM | – | Cc1cc(-c2ccn3nc(Nc4cc(C)nc(C)n4)cc3c2)c(OCC(C)(C)O)nn1 [Example 600, 1-[4-[2-[(2,6-dimethylpyrimidin-4-yl)amino]pyrazolo[1,5-a]pyridin-5-yl]-6-methyl-pyridazin-3-yl]oxy-2-methyl-propan-2-ol] |
| < 0.838 nM | 0.000151 µM | – | Cc1cc(Nc2cc3cc(-c4cc(OC(C)C)ncc4OCC(C)(C)C#N)ccn3n2)nc(C)n1 [Example 663, 3-[[4-[2-[(2,6-dimethylpyrimidin-4-yl)amino]pyrazolo[1,5-a]pyridin-5-yl]-6-isopropoxy-3-pyridyl]oxy]-2,2-dimethyl-propanenitrile] |
| 821 nM | 0.0179 µM | – | COc1cnccc1-c1ccn2nc(NC(=O)C3CC3)cc2c1 [Example 749, N-[5-(3-methoxy-4-pyridyl)pyrazolo[1,5-a]pyridin-2-yl]cyclopropanecarboxamide] |
| 806 nM | 0.061 µM | – | CCOc1cnc(C)cc1-c1ccn2nc(NC(=O)C3CC3)cc2c1 [Example 752, N-[5-(5-ethoxy-2-methyl-4-pyridyl)pyrazolo[1,5-a]pyridin-2-yl]cyclopropanecarboxamide] |
| 483 nM | – | 0.00298 µM | N#Cc1cc(-c2ccn3nc(NC(=O)C4CC4)cc3c2)c(OCc2ccccc2)cn1 [Example 753, N-[5-(5-benzyloxy-2-cyano-4-pyridyl)pyrazolo[1,5-a]pyridin-2-yl]cyclopropanecarboxamide] |
